# Columns and labels:
# Experiment in all cases: Test D pre-/postemergence plant response
# Assay type in all cases: in vivo
# [1] = system: velvetleaf (Abutilon theophrasti); conditions: Abutilon theophrasti, pre-emergence, Preemergence
# How it was run: (§1)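 Two application timings were run together: preemergence onto seeded loam–sand pots, and postemergence onto 1- to 4-leaf plants (2 to 18 cm) in peat/vermiculite medium with starter nutrients. Formulation was a non-phytotoxic solvent with surfactant. Ratings, 0 to 100, were made visually versus controls after 13 to 15 greenhouse days.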
# [2] = system: yellow nutsedge (Cyperus esculentus); conditions: Cyperus, pre-emergence, Preemergence
# How it was run: as §1
# [3] = system: giant foxtail (Setaria faberii); conditions: Setaria faberi, pre-emergence, Preemergence
# How it was run: as §1
# [4] = system: waterhemp (common waterhemp, Amaranthus rudis); conditions: Amaranthus tuberculatus, pre-emergence, Preemergence
# How it was run: as §1
# [5] = system: Italian ryegrass (Lolium multiflorum); conditions: Lolium multiflorum, pre-emergence, Preemergence
# How it was run: as §1
# [6] = system: oilseed rape (Brassica napus); conditions: Brassica napus, pre-emergence, Preemergence
# How it was run: as §1
# [7] = system: lambsquarters (Chenopodium album); conditions: Chenopodium album, pre-emergence, Preemergence
# How it was run: as §1
# [8] = system: ragweed (common ragweed, Ambrosia elatior); conditions: Ambrosia artemisiifolia, pre-emergence, Preemergence
# How it was run: as §1
# [9] = system: morningglory (Ipomoea coccinea); conditions: Ipomoea, pre-emergence, Preemergence
# How it was run: as §1
smiles,measurement,setting,value
"N#Cc1cccc(Oc2ncc(Cl)cn2)c1-c1cc(C(F)(F)F)ccn1 [Compound 158, 5-chloro-2-[3-cyano-2-[4-(trifluoromethyl)-2-pyridinyl]phenoxy]pyrimidine]",pest or weed control at 125 g/ha,"[1]; 125 g ai/ha, read-out: Plant response rating (scale 0 to 100), Velvetleaf",70%
same,pest or weed control at 16 g/ha,"[1]; 16 g ai/ha, scale 0 to 100 (0 no effect, 100 complete control), read-out: Plant response rating, Velvetleaf",35%
same,pest or weed control at 31 g/ha,"[1]; 31 g ai/ha, scale 0 to 100 (0 no effect, 100 complete control), read-out: Plant response rating, Velvetleaf",25%
same,pest or weed control at 62 g/ha,"[1]; 62 g ai/ha, scale 0 to 100 (0 no effect, 100 complete control), read-out: Plant response rating, Velvetleaf",40%
same,pest or weed control at 125 g/ha,"[2]; 125 g ai/ha, read-out: Plant response rating (scale 0 to 100), Nutsedge, Yellow",5%
same,pest or weed control at 16 g/ha,"[2]; 16 g ai/ha, scale 0 to 100 (0 no effect, 100 complete control), read-out: Plant response rating, Nutsedge, Yellow",0%
same,pest or weed control at 31 g/ha,"[2]; 31 g ai/ha, scale 0 to 100 (0 no effect, 100 complete control), read-out: Plant response rating, Nutsedge, Yellow",0%
same,pest or weed control at 62 g/ha,"[2]; 62 g ai/ha, scale 0 to 100 (0 no effect, 100 complete control), read-out: Plant response rating, Nutsedge, Yellow",5%
same,pest or weed control at 125 g/ha,"[3]; 125 g ai/ha, read-out: Plant response rating (scale 0 to 100), Foxtail, Giant",100%
same,pest or weed control at 16 g/ha,"[3]; 16 g ai/ha, scale 0 to 100 (0 no effect, 100 complete control), read-out: Plant response rating, Foxtail, Giant",5%
same,pest or weed control at 31 g/ha,"[3]; 31 g ai/ha, scale 0 to 100 (0 no effect, 100 complete control), read-out: Plant response rating, Foxtail, Giant",55%
same,pest or weed control at 62 g/ha,"[3]; 62 g ai/ha, scale 0 to 100 (0 no effect, 100 complete control), read-out: Plant response rating, Foxtail, Giant",85%
same,pest or weed control at 125 g/ha,"[4]; 125 g ai/ha, read-out: Plant response rating (scale 0 to 100), Waterhemp",100%
same,pest or weed control at 16 g/ha,"[4]; 16 g ai/ha, scale 0 to 100 (0 no effect, 100 complete control), read-out: Plant response rating, Waterhemp",100%
same,pest or weed control at 31 g/ha,"[4]; 31 g ai/ha, scale 0 to 100 (0 no effect, 100 complete control), read-out: Plant response rating, Waterhemp",100%
same,pest or weed control at 62 g/ha,"[4]; 62 g ai/ha, scale 0 to 100 (0 no effect, 100 complete control), read-out: Plant response rating, Waterhemp",100%
same,pest or weed control at 125 g/ha,"[5]; 125 g ai/ha, read-out: Plant response rating (scale 0 to 100), Ryegrass, Italian",20%
same,pest or weed control at 16 g/ha,"[5]; 16 g ai/ha, scale 0 to 100 (0 no effect, 100 complete control), read-out: Plant response rating, Ryegrass, Italian",0%
same,pest or weed control at 31 g/ha,"[5]; 31 g ai/ha, scale 0 to 100 (0 no effect, 100 complete control), read-out: Plant response rating, Ryegrass, Italian",0%
same,pest or weed control at 62 g/ha,"[5]; 62 g ai/ha, scale 0 to 100 (0 no effect, 100 complete control), read-out: Plant response rating, Ryegrass, Italian",0%
same,plant injury at 125 g/ha,"[6]; 125 g ai/ha, read-out: Plant response rating (scale 0 to 100), Oilseed Rape",98%
same,plant injury at 16 g/ha,"[6]; 16 g ai/ha, scale 0 to 100 (0 no effect, 100 complete control), read-out: Plant response rating, Oilseed Rape",40%
same,plant injury at 31 g/ha,"[6]; 31 g ai/ha, scale 0 to 100 (0 no effect, 100 complete control), read-out: Plant response rating, Oilseed Rape",50%
same,plant injury at 62 g/ha,"[6]; 62 g ai/ha, scale 0 to 100 (0 no effect, 100 complete control), read-out: Plant response rating, Oilseed Rape",90%
same,pest or weed control at 125 g/ha,"[7]; 125 g ai/ha, read-out: Plant response rating (scale 0 to 100), Lambsquarters",80%
same,pest or weed control at 16 g/ha,"[7]; 16 g ai/ha, scale 0 to 100 (0 no effect, 100 complete control), read-out: Plant response rating, Lambsquarters",75%
same,pest or weed control at 31 g/ha,"[7]; 31 g ai/ha, scale 0 to 100 (0 no effect, 100 complete control), read-out: Plant response rating, Lambsquarters",100%
same,pest or weed control at 62 g/ha,"[7]; 62 g ai/ha, scale 0 to 100 (0 no effect, 100 complete control), read-out: Plant response rating, Lambsquarters",100%
same,pest or weed control at 125 g/ha,"[8]; 125 g ai/ha, read-out: Plant response rating (scale 0 to 100), Ragweed",50%
same,pest or weed control at 16 g/ha,"[8]; 16 g ai/ha, scale 0 to 100 (0 no effect, 100 complete control), read-out: Plant response rating, Ragweed",80%
same,pest or weed control at 31 g/ha,"[8]; 31 g ai/ha, scale 0 to 100 (0 no effect, 100 complete control), read-out: Plant response rating, Ragweed",60%
same,pest or weed control at 62 g/ha,"[8]; 62 g ai/ha, scale 0 to 100 (0 no effect, 100 complete control), read-out: Plant response rating, Ragweed",70%
same,pest or weed control at 125 g/ha,"[9]; 125 g ai/ha, read-out: Plant response rating (scale 0 to 100), Morningglory",70%
same,pest or weed control at 16 g/ha,"[9]; 16 g ai/ha, scale 0 to 100 (0 no effect, 100 complete control), read-out: Plant response rating, Morningglory",5%
same,pest or weed control at 31 g/ha,"[9]; 31 g ai/ha, scale 0 to 100 (0 no effect, 100 complete control), read-out: Plant response rating, Morningglory",15%
same,pest or weed control at 62 g/ha,"[9]; 62 g ai/ha, scale 0 to 100 (0 no effect, 100 complete control), read-out: Plant response rating, Morningglory",15%
